The source of these data is ChEMBL document CHEMBL1128122, “Synthesis of 1,25-dihydroxy-22-thiavitamin D3 and related analogs” (1995).

This experiment relates to HL-60. Put plainly: In vitro differentiation-inducing activity of human myeloid leukemia cells (HL-60) into macrophages; compound showed potent activity. The class given is functional, cell-based.

As for `C=C1/C(=C\C=C2/CCC[C@@]3(C)C2CCC3[C@@H](C)SCCC(O)(CC)CC)C[C@@H](O)C[C@@H]1O` (stereo partly specified), the Activity entry is reported as “compound showed potent activity”.
